In patent EP4059493A1, “A CHLOROPHYLLIN CONTAINING PHARMACEUTICAL COMPOSITION FOR PREVENTION OF PATHOGENESIS OF CORONAVIRUS DISEASE” (priority 2021, dated 2022):
Like-named read-outs stand apart in the source and are kept apart here.

What was measured:
[1] = system: CD34+ hematopoietic stem and progenitor cells; assay: Phase I clinical study: CD34+ hematopoietic stem and progenitor cells in blood by flow cytometry; assay type: in vivo, human; details: 750 mg tablets, fasting (Fig 2)
Description: (§1) An open label Phase I clinical study was conducted to assess pharmacodynamics of sodium copper Chlorophyllin in healthy adult, human male subjects under fasting conditions. The study was approved by Drug Controller General of India (DCGI). The trial is registered with the Clinical Trial Registry of India (CTRI/2018/09/015576). Five healthy male subjects were allowed to fast overnight and one Chlorophyllin tablet (750 mg) was administered to each subject by oral route along with ∼200 ml water. The subjects were given breakfast, lunch and snacks and a second tablet of Chlorophyllin (750 mg) was administered to each subject by oral route along with 200 ml water after 12 hr.
Blood sample at each time point was also collected in K2EDTA vacutainer tube and erythrocytes were lysed using RBC lysis buffer. Then cells were stained with fixable far red live dead reagent and PE-CD34 and FITC-CD45 antibodies at 4°C and fixed with 4% formaldehyde. The frequency of CD34+ hematopoietic stem and progenitor cells in the blood was determined by flow cytometry and FlowJo software.

[2] = system: MIP-1α; assay: Phase I clinical study: serum chemokine by cytometric bead array, MIP-1α; assay type: in vivo, human; details: 72hr after first dose
Description: as §1
(§2) Chlorophyllin tablets comprising Chlorophyllin or salts thereof (750 mg), were administered to healthy human subjects after overnight fasting. Blood samples were collected through an indwelling intravenous cannula (Venflon) placed in the fore arm vein of the subjects at different time intervals. Absolute neutrophil count (ANC) and white blood cell (WBC) counts were measured. Serum was separated and chemokine concentration in the serum was measured using cytometric bead array.

[3] = system: rats; assay: 28 day repeat dose toxicity study; assay type: in vivo; details: daily dose of 1000 mg per kg body weight for 28 consecutive days
Description: (§3) Different doses of Chlorophyllin (100 to 5000 mg/kg body weight) were given to mice and rats (6 males, 6 females) by oral gavage in an accredited facility for animal toxicity testing. […] There were no signs of toxicity in rodents treated with indicated doses of Chlorophyllin.

[4] = system: SARS-CoV-2 virus; assay type: cell-based
[5] = system: rats; assay: Acute oral toxicity (oral gavage), rats; assay type: in vivo
Description: as §3

[6] = system: mice; assay: Acute oral toxicity (oral gavage), mice; assay type: in vivo
Description: as §3

[7] = system: white blood cell; assay: Phase I clinical study: white blood cell (WBC) count in blood; assay type: in vivo, human; details: 8-16hr after first dose (750 mg), fasting
Description: as §1, §2

[8] = system: neutrophils; assay: Phase I clinical study: absolute neutrophil count (ANC) in blood; assay type: in vivo, human
Description: as §1, §2

[9] = system: Vero CCL-81 cells; details: 5µM Concentration (Fig 4B right panel)
[10] = system: lymphocytes; assay: Phase I clinical study: lymphocyte counts in blood; assay type: in vivo, human; details: Fig 4A
Description: as §1, §2

[11] = system: healthy human subjects; assay: Phase I clinical study: tolerability in healthy human subjects; assay type: in vivo; details: 750 mg given twice a day, all five human subjects
Description: as §1

[12] = system: MCP-1; assay: Phase I clinical study: serum chemokine by cytometric bead array, MCP-1; assay type: in vivo, human; details: 24hr after first dose
Description: as §1, §2

[13] = system: MIP-1β; assay: Phase I clinical study: serum chemokine by cytometric bead array, MIP-1β; assay type: in vivo, human; details: 24hr after first dose
Description: as §1, §2

Sodium copper Chlorophyllin
relative decrease in percentage of CD34+ HPSCs in human blood as compared to pre-dose value [1]: 50-85% | relative decrease in MIP-1α in human blood as compared to pre-dose value [2]: 12-21% | tolerability in repeat dose toxicity study [3]: well tolerated | effect on SARS-CoV-2 virus multiplication ([4]; 0.1 micro molar concentration (Fig 4 right panel)): did not inhibit | inhibition of SARS-CoV-2 multiplication ([4]; 5 micro-molar concentration, 72 hr (three days), Vero CCL-81 cells): ~87% | EC50 ([4]; 72 hr treatment, read-out: concentration of CHL required to inhibit the growth of SARS-CoV-2 virus by 50% (EC50)): < 1 µM | concentration of chlorophyllin required for ∼90% inhibition of multiplication of SARS-CoV-2 virus ([4]; Fig 4): about 5 micro molar | EC50 ([4]; Vero CCL-81 cells, 72 hr, read-out: concentration of Chlorophyllin required for inhibition of 50% viral multiplication(EC50)): < 1 µM | effect on multiplication of SARS-CoV-2 virus ([4]; less than 1 micro-molar concentration): did not significantly decrease | tolerability of acute oral dose ([5]; rats, up to 5000 mg/kg body weight, oral gavage): well tolerated | LD50 dose ([5]; rodents (rats), proposed from absence of toxicity, morbidity or mortality): higher than 5000 mg/kg body weight | tolerability of acute oral dose ([6]; mice, up to 5000 mg/kg body weight, oral gavage): well tolerated | LD50 dose ([6]; rodents (mice), proposed from absence of toxicity, morbidity or mortality): higher than 5000 mg/kg body weight | increase in WBC count relative to pre-dose value [7]: 12.8-26.5% | time after first dose at which ANC increase was observed ([8]; 750 mg, 4hr before second dose): ≤ 8 h | increase in ANC relative to pre-dose value ([8]; 8-16 hr after first dose (750 mg), fasting, five subjects): 12.4-32.5% | cytotoxicity in the target cells [9]: without causing cytotoxicity | increase in the lymphocyte counts in human blood as compared to pre-dose value [10]: up to 30% | tolerability in human subjects [11]: well tolerated | relative decrease in MCP-1 in human blood as compared to pre-dose value [12]: 13-37% | relative decrease in MIP-1β in human blood as compared to pre-dose value [13]: 11-55%
